Test results: US20210275621A1, “COMPOSITION FOR PREVENTING, ALLEVIATING, IMPROVING, OR TREATING THE FEMALE HORMONE CONTROLLING DISORDER SYNDROME OR SYMPTOMS COMPRISING GREEN TEA EXTRACT WHICH HAS MODIFIED AMOUNTS OF INGREDIENTS” (AMOREPACIFIC CORPORATION, priority 2020, published 2021)

What was measured:
Format in all cases: cell-based
[1] = tested on: MCF-7 cells (breast cancer cells); experiment: MCF-7 breast cancer cell growth (cell counting); details: 100 pM, 48 hours; FIG. 7
estrogen receptor ERβ = molecular target: T1, estrogen receptor ERβ (Homo sapiens, UniProt Q92731); experiment: Human ERα/β reporter assay panel (ERE-luc), ERβ; details: 1 μg/mL, 24 hours; FIG. 6
T1 construct: host or cells: reporter cells included in the purchased panel
T1 sequence (Q92731 whole entry): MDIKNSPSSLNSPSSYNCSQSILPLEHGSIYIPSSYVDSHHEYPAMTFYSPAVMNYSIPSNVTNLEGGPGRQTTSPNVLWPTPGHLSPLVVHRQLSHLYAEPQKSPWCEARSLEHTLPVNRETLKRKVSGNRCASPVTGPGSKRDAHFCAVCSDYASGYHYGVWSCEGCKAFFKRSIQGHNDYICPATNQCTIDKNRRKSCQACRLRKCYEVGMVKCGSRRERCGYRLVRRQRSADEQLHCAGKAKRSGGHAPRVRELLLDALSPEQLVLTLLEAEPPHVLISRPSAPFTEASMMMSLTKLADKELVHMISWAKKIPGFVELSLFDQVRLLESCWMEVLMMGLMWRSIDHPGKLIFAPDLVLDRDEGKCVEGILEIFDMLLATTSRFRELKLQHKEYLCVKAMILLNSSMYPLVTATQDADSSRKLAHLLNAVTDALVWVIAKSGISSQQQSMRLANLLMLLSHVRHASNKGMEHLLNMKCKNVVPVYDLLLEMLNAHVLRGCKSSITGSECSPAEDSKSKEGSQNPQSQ
Experimental: (§1) For evaluation of the effect of activating estrogen receptors alpha and beta (ERα/β) of the notified green tea extract, the high-temperature-processed green tea extract and theanine depending on the weight ratio of GCG:EGCG, a human ERα/β reporter assay panel (IB00421-48P, Indigo Bioscience) was treated with 20 μg/mL sample 1 (notified green tea extract), 20 μg/mL sample 2 (high-temperature-processed green tea extract), 20 μg/mL sample 3, or 20 μg/mL sample 4 of Preparation Example 1 or 2, or 1 μg/mL theanine of Preparation Example 3, for 24 hours and then the increased activity of the estrogen receptors ERα and ERβ was analyzed.
(§2) Specifically, ERα and ERβ are overexpressed and the ERE-luc reporter gene is included in the cells included in the human ERα/β reporter assay panel. If the activity of the estrogen receptors is increased upon treatment with the test substance, ERα and ERβ are bound to ERE and the expression of luciferase is induced. Therefore, the activity of ERα and ERβ can be determined by measuring light emission from the cells.

estrogen receptor ERα = molecular target: T2, estrogen receptor ERα (Homo sapiens, UniProt P03372); experiment: Human ERα/β reporter assay panel (ERE-luc), ERα; details: 1 μg/mL, 24 hours; FIG. 6
T2 construct: host or cells: reporter cells included in the purchased panel
T2 sequence (P03372 1-595): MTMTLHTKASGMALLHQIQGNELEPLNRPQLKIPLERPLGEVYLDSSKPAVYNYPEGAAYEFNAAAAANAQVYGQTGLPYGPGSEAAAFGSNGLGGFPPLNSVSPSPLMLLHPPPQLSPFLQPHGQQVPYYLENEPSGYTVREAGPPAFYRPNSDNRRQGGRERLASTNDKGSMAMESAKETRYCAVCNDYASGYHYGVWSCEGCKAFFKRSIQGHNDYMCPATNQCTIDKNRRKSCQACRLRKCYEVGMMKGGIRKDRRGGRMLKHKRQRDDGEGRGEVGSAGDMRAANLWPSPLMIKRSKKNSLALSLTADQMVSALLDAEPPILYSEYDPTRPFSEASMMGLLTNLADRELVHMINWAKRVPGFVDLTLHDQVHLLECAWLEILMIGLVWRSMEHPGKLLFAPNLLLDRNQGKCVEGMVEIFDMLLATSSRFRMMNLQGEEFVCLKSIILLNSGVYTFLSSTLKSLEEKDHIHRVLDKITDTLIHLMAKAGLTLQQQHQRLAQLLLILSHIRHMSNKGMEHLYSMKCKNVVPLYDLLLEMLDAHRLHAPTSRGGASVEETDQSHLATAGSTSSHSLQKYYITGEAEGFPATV
Experimental: as §1, §2

| activity of estrogen receptor ERβ (luciferase activity) (estrogen receptor ERβ) | activity of estrogen receptor ERα (luciferase activity) (estrogen receptor ERα) | SMILES | growth of MCF-7 cells (number of cells) [1] |
| --- | --- | --- | --- |
|  |  | C[C@]12CC[C@@H]3c4ccc(O)cc4CC[C@H]3[C@@H]1CC[C@@H]2O [17b-estradiol] | promoted significantly |
| no receptor-activating effect | no receptor-activating effect | CCNC(=O)CC[C@H](N)C(=O)O [theanine, L-theanine] |  |
